For data set [1], the system named is Bacterial Vaginosis. The note with it: cited from earlier work.
For data set [2], the system named is symptoms associated with bacterial vaginosis. Briefly: Treatment of a person with recurrent vaginal fishy-smelling secretions (Example 9). To be noted: after two 7-day treatments. The format is in vivo, human. Here is the method:
A person had suffered from discomfort and vaginal secretions of fishy smell recurring after two 7-day treatments with metronidazole. The vaginal pH was approximately 5.3, varying between 5.0 and 5.5.
A lactose suspension (1-3 ml) as prepared in Example 8 was instilled into the vagina twice daily. After approximately 24 hours the pH lowered to 4.7 and the fishy odor disappeared. Continuous application once a day further lowered the pH down to approximately 4.4. The treatment was continued for 4 days.
After 4 days symptoms such as the fishy odor recurred; however, the symptoms disappeared after one day of the treatment described above.

With Lactobacillus acidophilus, in data set [1] (alternative measures), the benefits in studies entry is “have not demonstrated benefits”.
Take `CCC[C@@H]1C[C@@H](C(=O)N[C@@H]([C@H]2O[C@H](SC)[C@H](O)[C@@H](O)[C@H]2O)[C@H](C)Cl)N(C)C1` [Clindamycin]: in data set [1] (7-day treatment), the side effects result was “less, though diarrhea is possible”.
On to `Cc1ncc([N+](=O)[O-])n1CCO` [Metronidazole], for which the cure rate in data set [1] (7-day treatment, after 1 month) is recorded as 80-90%. In addition, the side effects result in data set [1] (7-day treatment) was “nausea, abdominal cramps and a metallic taste”. In data set [2], the “discomfort and vaginal secretions of fishy smell after treatment” value is “recurring”.

The values above are taken from patent US20160136193A1, “TREATMENT OF SYMPTOMS ASSOCIATED WITH BACTERIAL VAGINOSIS” (IDH Holding ApS, priority 2003, published 2016).
